These results are taken from patent publication US8114897B2, “Pesticidal composition and method for controlling a pest” (priority 2007, dated 2012).

Each structure is given as a SMILES string.

In data set [1] the test system is cockroaches Blattella germanica. The experiment in a line: Referential Test Example: spray test on hidden cockroaches, mortality rate. The data set is classed as in vivo. The settings on record: 4.2 mL test formulation solution (ingredient concentrations % (w/v) per Table 2, in diethylene glycol monomethylether) sprayed in 70 cm cubic glass box; 10 cockroaches; transferred after 10 minutes; counted after 3 days; average of duplicate. The source says:
Suitable amounts of the compound A and either (E)-N^1-[(6-chloro-3-pyridyl)methyl]-N^2-cyano-N^1-methylacetamidine (general name: acetamiprid, hereinafter, referred to as N-cyanoacetamidine compound) or 1-(6-chloro-3-pyridylmethyl)-N-nitroimidazolidin-2-ylidene amine (general name: imidacloprid, hereinafter referred to as nitroimidazoline compound) are mixed with diethylene glycol monomethylether, to give test formulation solutions containing the compound A and either the N-cyano acetamidine or nitroimidazoline compound at particular concentrations (see Table 2).
A triangular prism wooden container (regular triangle having a base of 3.5 cm and a height of 15 cm) containing 10 cockroaches Blattella germanica (5 males and 5 females) hidden therein was placed in the bottom center of a cubic glass box having a base of 70 cm. 4.2 Milliliters of the test formulation solution was sprayed on the glass box with a spray gun. In 10 minutes after the spraying, the cockroaches were transferred into a plastic container containing food and water and left there for 3 days. The number of live cockroaches was then counted, to give a mortality rate.

For data set [2] the test system is unchanged. In words: Test Example: spray test on hidden cockroaches, mortality rate. The data set is classed as in vivo. The settings on record: 4.2 mL test formulation solution (ingredient concentrations % (W/V) per Table 1, in diethylene glycol monomethylether) sprayed in 70 cm cubic glass box; 10 cockroaches; transferred after 10 minutes; counted after 3 days; average of duplicate. The source says:
Suitable amounts of 4-methoxymethyl-2,3,5,6-tetrafluorobenzyl(1R)-trans-3-(2-cyano-1-propenyl)-2,2-dimethylcyclopropanecarboxylate (isomer ratio, based on double bond, Z/E: approximately 2/1) (hereinafter, referred to as compound A) and/or clothianidin (manufactured by Sumika Takeda Agrochemicals Co.) are mixed with diethylene glycol monomethylether, to give a test formulation solution containing the compound A and/or clothianidin at particular concentrations (see Table 1).
A triangular prism wooden container (regular triangle having a base of 3.5 cm and a height of 15 cm) containing 10 cockroaches Blattella germanica (5 males and 5 females) hidden therein was placed in the bottom center of a cubic glass box having a base of 70 cm square. 4.2 Milliliters of the test formulation solution was sprayed on the glass box with a spray gun. In 10 minutes after the spraying, the cockroaches were transferred into a plastic container containing food and water and left there for 3 days. The number of live cockroaches was then counted, to give a mortality rate.

Consider `COCc1c(F)c(F)c(COC(=O)[C@@H]2[C@@H](C=C(C)C#N)C2(C)C)c(F)c1F` [compound 7, 4-methoxymethyl-2,3,5,6-tetrafluorobenzyl(1R)-trans-3-(2-cyano-1-propenyl)-2,2-dimethylcyclopropanecarboxylate], for which the “Mortality rate (%)” value in data set [1] and in data set [2] was 5% in each case. With `CN/C(=N\[N+](=O)[O-])NCc1cnc(Cl)s1` [compound 8, 1-(2-chloro-1,3-thiazolyl)methyl-3-methyl-2-nitroguanidine], in data set [2], the “Mortality rate (%)” value is on record as 35%.

Regarding `C/C(=N\C#N)N(C)Cc1ccc(Cl)nc1` [compound 12, (E)-N^1-[(6-chloro-3-pyridyl)methyl]-N^2-cyano-N^1-methylacetamidine], the “Mortality rate (%)” value in data set [1] is given as 5%. As to `O=[N+]([O-])NC1=NCCN1Cc1ccc(Cl)nc1` [compound 13, 1-(6-chloro-3-pyridylmethyl)-N-nitroimidazolidin-2-ylidene amine], the “Mortality rate (%)” value in data set [1] was determined as 15%.
